In patent US8889840B2, “Vascular leakage inhibitor” (Industry-Academic Cooperation Foundation, Yonsei University, priority 2009, dated 2014):
Entries after “also recorded” stand apart in the source; their conditions may differ.

Columns and labels:
[1] = system: diabetic mouse (DM) model; assay: Retinal vascular permeability in diabetic mouse (DM) model, FITC-dextran; assay type: in vivo, C57/BL6 mouse; details: streptozotocin diabetic mouse, 10 μg into the vitreous body, 24 hours
Description: 10 μg of Sac0601 or 10 μg of Sac0504 was injected into the vitreous body of one eye of a diabetic mouse. 24 hours after the injection, 100 μL of FITC-dextran (30 mg/mL in filtered […]) was injected into the left ventricle. Then, the retina was observed under an optical microscope (FIG. 11a) and the fluorescence intensity was quantified (FIG. 11b).
For in vivo analysis of the effect of the synthesized Rk1 derivatives on increased vascular permeability in diabetic retinopathy, a diabetic mouse (DM) model was made by injecting streptozotocin to C57/BL6 mouse. Sac 0601 or Sac 0504 (10 μg) was injected into the vitreous body of the mouse. 24 hours later, 40-kDa FITC-dextran (30 mg/mL in PBS, Sigma) was injected into the left ventricle. After waiting for about 2 minutes for circulation of the tracer, the eyes were taken out and fixed immediately in 4% PFA. Then, the retina was taken out and observed under an optical microscope.

HUVECs = assay: VEGF-induced actin stress fibers in HUVECs, rhodamine phalloidin staining; assay type: cell-based, human; details: 10 μg/mL pretreatment 1 hour, 20 ng/mL VEGF
Description: Confluent HUVECs were pretreated with the compounds (10 μg/mL) for 60 minutes before treating with 20 ng/mL VEGF (1 hr). The cells were then stained with rhodamine phalloidin.
It is known that the change in the actin structure of the cytoskeleton is closely related with the permeability of vascular endothelial cells. Increased permeability of vascular endothelial cells leads to increased formation of actin stress fibers and decrease of cortical actin ring structures. Based on this, the ability of inhibiting vascular endothelial permeability of the synthesized Rk1 derivatives was screened. Confluent HUVECs were pretreated with the synthesized compounds (10 μg/mL) for 1 hour before treating with 20 ng/mL VEGF (Upstate Biotechnology). Subsequently, the cells were fixed with 4% paraformaldehyde for 20 minutes at room temperature and washed 3 times with PBS (pH 7.4). Then, the cells were permeabilized with 0.1% Triton X-100/PBS and reacted with 0.1 mg/mL rhodamine phalloidin (Molecular Probes) for 1 hour. Then, the cells were observed under a fluorescence microscope (Olympus).

[2] = system: human retinal endothelial cells (HRECs); assay: Serum depletion-induced apoptosis of HRECs, MTT assay and cell morphology; assay type: cell-based; details: serum-free medium, 0.1-10 μg/mL
Description: HRECs (3×10^4 cells/well) were seeded on a 24-well plate in M199 medium containing 20% fetal bovine serum. The next day, the cells were transferred to a medium containing […] Sac0601 (FIG. 4a) or 0.1-10 μg/mL Sac0504 (FIG. 4b). Cell viability was determined by MTT assay 48 hours later. FIGS. 5a-5c show the result of observing cell morphologies.
Human umbilical vein endothelial cells (HUVECs) and human retinal endothelial cells (HRECs) purchased from Cell Systems (USA) were seeded on a 100-mm culture dish in M199 medium (Life Technologies, USA) containing 20% (w/v) fetal bovine serum (FBS, HyClone, Canada), 100 units/mL penicillin (Invitrogen, USA), 100 μg/mL streptomycin (invitrogen, USA), 3 ng/mL basic fibroblast growth factor (bFGF, Upstate Biotechnology, USA) and 5 units/mL heparin and cultured in a 5% CO2 incubator at 37° C.
Also, HRECs were treated with the compounds synthesized in Synthesis Example 5 and MIT assay was performed 48 hours later in the same manner as described above.
Also, the acid compound wherein the methyl ester formed by the introduction of the ester group was hydrolyzed was synthesized to provide improved water solubility and activity. MYT assay was performed for the compounds synthesized in Synthesis Example 6 in the same manner as described above 48 hours after treatment.
Their ability of inhibiting apoptosis was confirmed again for HRECs. HRECs (3×10^4 cells/well) were seeded on a 24-well plate in M199 medium (1 mL) containing 20% fetal bovine serum, Next day, the cells were transferred to serum-free M199 medium containing 0.1-10 μg/ml. Sac060.1 (FIG. 4a) or 0.1-10 μg; mL Sac0504 (FIG. 4b). Cell viability was determined by MTF assay in the same manner as in Test Example 1.
Their ability of inhibiting apoptosis was confirmed again for HRECs.

HRECs [3] = assay: VEGF-induced actin stress fibers in HRECs, rhodamine phalloidin staining; assay type: cell-based, human; details: 10 μg/mL 1 hour, then 20 ng/mL VEGF 1 hour
Description: Confluent HRECs were treated with 10 μg/mL Sac0601 or Sac0504 for 1 hour and then with 20 ng/mL VEGF for 1 hour. Subsequently, the cells were fixed at room temperature for 20 minutes with 4% paraformaldehyde and washed 3 times with PBS (pH 7.4). Then, the cells were permeabilized with 0.1% Triton X-100/PBS and reacted with 0.1 mg/mL rhodamine phalloidin (Molecular Probes) for 1 hour. Then, the cells were observed under a fluorescence microscope (Olympus). […] The analysis of actin cytoskeleton was conducted also for the compounds synthesized in Synthesis Example 5. Both Sac0904 and Sac0902 exerted effects in a concentration-dependent manner on the actin cytoskeleton which is closely related with vascular permeability (FIG. 7c).

HRECs [4] = assay: Permeability of HRECs on transwell filter, labelled sucrose; assay type: cell-based, human; details: 10 μg/mL 60 minutes, with or without 20 ng/mL VEGF
Description: HRECs were seeded on a transwell filter. After reaching confluency, the cells were pretreated with Sac0601 (FIG. 10a) and Sac0504 (FIG. 10b) for 60 minutes before treating with 20 ng/ml. VEGF (1 hr). The permeability of HRECs was determined by measuring radiation of […] (1 μCi/μL) diffused below the transwell using a liquid scintillation counter.
The effect of Sac0601 and Sac0504 on vascular permeability was analyzed. HRECs were seeded on a transwell filter (Corning Costar). After reaching confluency, the cells were cultured in M199 medium containing 1% FBS for 3 hours and treated with 10 μg/mL. Sac0601 (FIG. 10a) or Sac0504 (FIG. 10b) for 60 minutes, with or without pretreatment with 20 ng/mL VEGF for 60 minutes. Then, [^3H]sucrose (1 μCi [0.037 MBq.]/μL or 50 μL (0.8 μCi [0.0296 MBq])/mL, Amersham Pharmacia) were added. 30 minutes later, radiation diffused below the transwell was measured using a liquid scintillation counter (Wallac, PerkinElmer). Measurement was made at least four locations.

Compound | retinal vascular permeability induced in the DM [1] | cortical actin ring structure (HUVECs) | formation of actin stress fibers induced by VEGF (HUVECs) | ability of protecting retinal vascular endothelial cells from apoptosis induced by the removal of serum (MTT) [2] | formation of actin stress fibers induced by VEGF (HRECs [3]) | formation of cortical actin ring structures (HRECs [3]) | permeability of the vascular endothelial cells (HRECs [4])
CC(=O)OCC1OC(OC2CCC3(C)C(=CCC4C3CCC3(C)C(C(C)CCCC(C)C)CCC43)C2)C=CC1OC(C)=O (centres unmarked) [Sac0601] | completely inhibits; also recorded: very effectively | increased the cortical actin ring structure | inhibited the formation of actin stress fibers induced by VEGF | have the ability of protecting the retinal vascular endothelial cells from apoptosis | inhibited the formation of actin stress fibers induced by VEGF | increased the formation of cortical actin ring structures | inhibiting permeability of the vascular endothelial cells
CC(C)CCC[C@@H](C)[C@H]1CC[C@H]2[C@@H]3CC=C4C[C@@H](OC5CCCCO5)CC[C@]4(C)[C@H]3CC[C@]12C (some centres unmarked) [Sac0504] | partially inhibits; also recorded: only limitedly | increased the cortical actin ring structure | inhibited the formation of actin stress fibers induced by VEGF | have the ability of protecting the retinal vascular endothelial cells from apoptosis | inhibited the formation of actin stress fibers induced by VEGF | increased the formation of cortical actin ring structures | inhibiting permeability of the vascular endothelial cells
